{"source": "patent US20250099779A1", "about": "“DEVICE AND METHOD FOR REGULATING RELEASE OF ADENOSINE IN ORGANISM, AND USE” (WENZHOU VENTURA TECHNOLOGY CO., LTD., priority 2022, published 2025)", "type_in_all_cases": "in vivo", "key": {"[1]": {"test_system": "CD73-KO mice", "assay": "Nocturnal movement activity after 40 Hz light flicker", "protocol": "Thus, we speculated that the 40 Hz light flicker stimulus can regulate sleep rhythm. We firstly exposed the wild-type C57BL/6J mice to light flickers at different frequencies in the last 30 minutes of the daytime phase (19:30-20:00), and then monitored the nocturnal movement activity of the mice, thereby reflecting the sleep-wake states of the mice indirectly. […] We then intraperitoneally injected CD73-KO mice with the […] transporter inhibitor Dipyridamole (Dipyr) at 15 mg/kg. […] Meanwhile, we also intraperitoneally injected CD73-KO mice with the adenosine Al receptor activity antagonist 8-Cyclopentyl-1,3-dipropyl-1H-purine-2,6(3H,7H)-dione (DPCPX) at 6 mg/kg."}, "[2]": {"test_system": "adenosine in the visual cortex (V1)", "assay": "UPLC detection of total adenosine concentration in the visual cortex of mice", "settings": "mice visual cortex V1, Dipyridamole 6 mg/kg intraperitoneal, 30 min before illumination", "experimental": "The total concentration of adenosine in the visual cortex of mice was detected by ultra-high performance liquid chromatography (which is reported including 95% extracellular adenosine and 5% intracellular adenosine in literature). Dipyridamole (Dipyr) (a 6 mg/kg adenosine transporter inhibitor) dissolved in 0.5% methylcellulose was intraperitoneally injected 30 minutes before illumination, while the control group was given 0.5% methylcellulose. 30 minutes after the injection, the blank control group and the Dipyridamole group were illuminated for 30 minutes by the light flicker stimulus with the illuminance of 3000 lux, the duty ratio of 50% and the strobe of 40 Hz (referred to as “40 Hz light flicker stimulus” hereinafter). After illumination, the materials were sampled, weighed and rapidly frozen in liquid nitrogen immediately. After the sample processing, the peak value at about 2.0 was detected on machine with reference to the parameters of the standard substance, and the area under the curve at this moment was taken as the concentration of adenosine in the sample. Finally, the concentration of adenosine was obtained after checking the sample quality and calibrating."}, "[3]": {"test_system": "C57BL/6J mice", "assay": "EEG/EMG sleep recording after adenosine microinjection into V1 visual cortex", "protocol": "Adenosine was injected locally in the V1 cortex of mice to illustrate that the increase in the concentration of adenosine in the visual cortex could improve the sleep amount of mice. The administration cannulas were implanted in bilateral V1 brain regions of C57BL/6J mice, and the mice were placed in the sleep recording cage after about 10 days of surgical recovery. After 3 days of adaptation, the artificial cerebrospinal fluid (ACSF), adenosine of 1.5 nmol/side or adenosine 4.5 nmol/side was microinjected into the V1 visual cortex at the beginning of the dark phase on days 1, 4 and 7 (the administration order was random, and the injection volume was 2 μl/side), respectively; and the EEG/EMG of mice was recorded."}, "[4]": {"settings": "4.5 nmol/side microinjected into V1, mice"}}, "note": "Entries after “also recorded” stand apart in the source; their conditions may differ.", "data": [{"smiles": "CCCn1c(=O)c2[nH]c(C3CCCC3)nc2n(CCC)c1=O", "note": "[DPCPX, 8-Cyclopentyl-1,3-dipropyl-1H-purine-2,6(3H,7H)-dione]", "values": [{"measurement": "movement inhibition effect caused by the 40 Hz light flicker", "setting": "[1]; 6 mg/kg intraperitoneal, 6 mg/kg", "value": "block the movement inhibition effect"}]}, {"smiles": "OCCN(CCO)c1nc(N2CCCCC2)c2nc(N(CCO)CCO)nc(N3CCCCC3)c2n1", "note": "[Dipyridamole]", "values": [{"measurement": "total concentration of intracellular and extracellular adenosine", "setting": "[2]", "value": "effectively inhibit"}, {"measurement": "movement inhibition effect induced by the 40 Hz light flicker", "setting": "[1]; 15 mg/kg intraperitoneal, 15 mg/kg", "value": "blocks the movement inhibition effect; also recorded: completely disappeared"}]}, {"smiles": "Nc1ncnc2c1ncn2[C@@H]1O[C@H](CO)[C@@H](O)[C@H]1O", "note": "[adenosine]", "values": [{"measurement": "sleep amount compared to the control group (ACSF)", "setting": "[3]; 1.5 nmol/side microinjected into V1, mice", "value": "tendency to promote sleep but no significant difference"}, {"measurement": "amount of the non-rapid eye movement sleep in the dark phase", "setting": "[3]; [4]", "value": 3, "unit": "h"}, {"measurement": "non-rapid eye movement sleep amount compared to the control group (ACSF)", "setting": "[3]; [4]", "value": "significantly increases"}, {"measurement": "total sleep amount of mice", "setting": "[3]; adenosine injection into the visual cortex, 1.5 and 4.5 nmol/side", "value": "concentration-dependent increase"}]}]}
